Assay results published in patent publication US9738902B2, “Modified PYR/PYL receptors activated by ligands” (priority 2013, dated 2017).

Columns and labels:
[1] = tested on: transgenic 35S::PYR1^MANDI tomato plants; experiment: thermal imaging of leaf temperature; assay type: in vivo; settings: 10 μM mandipropamid, 24 hours post treatment
Description: The core ABA response pathway is highly conserved and it is therefore expected that PYR1^MANDI should be able to activate ABA responses in response to mandipropamid in most land plants. To investigate if the physiological activity of PYR1^MANDI is functional in other species besides Arabidopsis we made transgenic 35S::PYR1^MANDI tomato. The same construct utilized for construction of Arabidopsis transgenics (described in Example 5) was modified to contain a kanamycin selection marker. Tomato was transformed by Agrobacterium-mediated transformation, which was conducted as described by Sun et al. (2006) with a few modifications. Surface sterilized tomato seeds (strain UC82B) were germinated on sterilized wet filter paper in a petridish. Cotyledons from 7-day old seedlings were excised and dipped into a suspension of Agrobacterium in MS medium containing 100 μM acetosyringone and 10 μM 2-mercaptoethanol for 10 minutes. Explants were then placed on co-cultivation medium containing MS salts, 3% sucrose, 0.3% Gelite and 1.5 mg/L zeatin. After 3 days of co-culture in darkness, the explants were transferred onto callus induction medium containing MS salts, 3% sucrose, 0.3% Gelite, 1.5 mg/L zeatin and 100 mg/L kanamycin and 125 mg/L carbenicillin. Explants were transferred to freshly prepared medium every 2 weeks. […]

[2] = molecular target: T1, PYR1 K59R F108A S122G V83L (Arabidopsis thaliana, UniProt O49686, F108A/K59R/S122G/V83L); experiment: Y2H NNK Mutagenesis (HAB1, X-gal); assay type: cell-based
T1 construct: expressed in transfected cells; host or cells: S. cerevisiae Y190 pACT-HAB1
Procedure: (§1) The preceding efforts identified PYR1^K59R,F108A,S122G, which is responsive to mandipropamid concentrations as low as 1 μM. We next attempted to improve the mandipropamid receptor by screening for additional pocket-located mutations that improve compound responsiveness. We subjected PYR1^K59R,F108A,S122G to two separate mutagenesis experiments. We first examined the effects of adding single additional mutations at each of the other 23 ligand-contacting residues that are not altered in the PYR1^K59R,F108A,S122G backbone, using NNK codon-randomization primers. Each NNK primer was used to generate a pool of PYR1^K59R,F108A,S122G receptors containing additional mutations at a single ligand-contacting residue. DNA for this mutant pool was prepared and then transformed into a pACT-HAB1 MAV99 reporter strain, which allows URA3 based selection of active receptors (Peterson et al., 2010). The pooled yeast cells were plated on media containing 0.5 μM mandipropamid, a concentration too low to allow growth of a control MAV99 pACT-HAB1 reporter strain expressing pBD-PYR1^K59R,F108A,S122G. […] Mutants enabling ligand-dependent interactions were sequenced and plasmid DNA for these mutants was isolated and introduced into Y190 pACT-HAB1 so that X-gal staining could be utilized to evaluate receptor sensitivity. This process was repeated for each of the remaining 22 NNK primers. These efforts yielded 10 mutations (V81C, V81I, V81T, V83L, L87A, F159L, F159M, F159V, A160V, V164I) that enhance the mandipropamid sensitivity of PYR1^K59R,F108A,S122G (see entries labeled “NNK Mutagenesis Screen” in Table 1).

[3] = molecular target: T2, PYR1 K59R F108A S122G F159M (Arabidopsis thaliana, UniProt O49686, F108A/F159M/K59R/S122G); experiment: Y2H NNK Mutagenesis (HAB1, X-gal); assay type: cell-based
T2 construct: expressed in transfected cells; host or cells: S. cerevisiae Y190 pACT-HAB1
Procedure: as §1

[4] = molecular target: T3, PYR1 K59R F108A S122G A160V (Arabidopsis thaliana, UniProt O49686, A160V/F108A/K59R/S122G); experiment: Y2H NNK Mutagenesis (HAB1, X-gal); assay type: cell-based
T3 construct: expressed in transfected cells; host or cells: S. cerevisiae Y190 pACT-HAB1
Procedure: as §1

[5] = molecular target: T4, PYR1 K59R F108A S122G L87A (Arabidopsis thaliana, UniProt O49686, F108A/K59R/L87A/S122G); experiment: Y2H NNK Mutagenesis (HAB1, X-gal); assay type: cell-based
T4 construct: expressed in transfected cells; host or cells: S. cerevisiae Y190 pACT-HAB1
Procedure: as §1

[6] = molecular target: T5, PYR1 K59R F108A S122G V81I (Arabidopsis thaliana, UniProt O49686, F108A/K59R/S122G/V81I); experiment: Y2H NNK Mutagenesis (HAB1, X-gal); assay type: cell-based
T5 construct: expressed in transfected cells; host or cells: S. cerevisiae Y190 pACT-HAB1
Procedure: as §1

[7] = molecular target: T6, PYR1 K59R F108A S122G V164I (Arabidopsis thaliana, UniProt O49686, F108A/K59R/S122G/V164I); experiment: Y2H NNK Mutagenesis (HAB1, X-gal); assay type: cell-based
T6 construct: expressed in transfected cells; host or cells: S. cerevisiae Y190 pACT-HAB1
Procedure: as §1

[8] = molecular target: T7, PYR1 K59R F108A S122G V81C (Arabidopsis thaliana, UniProt O49686, F108A/K59R/S122G/V81C); experiment: Y2H NNK Mutagenesis (HAB1, X-gal); assay type: cell-based
T7 construct: expressed in transfected cells; host or cells: S. cerevisiae Y190 pACT-HAB1
Procedure: as §1

[9] = molecular target: T8, PYR1 K59R F108A S122G F159L (Arabidopsis thaliana, UniProt O49686, F108A/F159L/K59R/S122G); experiment: Y2H NNK Mutagenesis (HAB1, X-gal); assay type: cell-based
T8 construct: expressed in transfected cells; host or cells: S. cerevisiae Y190 pACT-HAB1
Procedure: as §1

[10] = molecular target: T9, PYR1 K59R F108A S122G V81T (Arabidopsis thaliana, UniProt O49686, F108A/K59R/S122G/V81T); experiment: Y2H NNK Mutagenesis (HAB1, X-gal); assay type: cell-based
T9 construct: expressed in transfected cells; host or cells: S. cerevisiae Y190 pACT-HAB1
Procedure: as §1

[11] = molecular target: T10, PYR1 K59R F108A S122G F159V (Arabidopsis thaliana, UniProt O49686, F108A/F159V/K59R/S122G); experiment: Y2H NNK Mutagenesis (HAB1, X-gal); assay type: cell-based
T10 construct: expressed in transfected cells; host or cells: S. cerevisiae Y190 pACT-HAB1
Procedure: as §1

T8 sequence (O49686 whole entry K59R/F108A/S122G/F159L): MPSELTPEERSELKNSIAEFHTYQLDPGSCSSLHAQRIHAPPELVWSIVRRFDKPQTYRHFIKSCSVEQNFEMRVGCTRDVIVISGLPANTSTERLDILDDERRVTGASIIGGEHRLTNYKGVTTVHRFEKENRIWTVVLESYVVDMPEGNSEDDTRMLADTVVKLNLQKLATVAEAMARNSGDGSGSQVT
T8 sequence (Q9CAJ0 23-511 partner): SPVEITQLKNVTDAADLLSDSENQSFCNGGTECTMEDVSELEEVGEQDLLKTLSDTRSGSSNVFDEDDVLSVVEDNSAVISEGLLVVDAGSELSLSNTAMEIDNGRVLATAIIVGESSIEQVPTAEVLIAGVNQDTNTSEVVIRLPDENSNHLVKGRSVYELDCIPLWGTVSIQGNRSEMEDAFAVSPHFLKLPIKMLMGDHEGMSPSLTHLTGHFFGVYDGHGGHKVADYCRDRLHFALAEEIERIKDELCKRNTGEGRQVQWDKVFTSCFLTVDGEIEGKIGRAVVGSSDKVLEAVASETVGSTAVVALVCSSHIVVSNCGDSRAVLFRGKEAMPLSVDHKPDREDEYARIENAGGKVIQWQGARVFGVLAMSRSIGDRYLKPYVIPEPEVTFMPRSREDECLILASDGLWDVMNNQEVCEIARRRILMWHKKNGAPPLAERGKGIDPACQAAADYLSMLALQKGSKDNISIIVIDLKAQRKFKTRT
T4 sequence (O49686 whole entry K59R/L87A/F108A/S122G): as the sequence (O49686 whole entry K59R/F108A/S122G/F159L) above, with L87A, L159F counted along it
T4 sequence (Q9CAJ0 23-511 partner): as the sequence (Q9CAJ0 23-511 partner) above
T9 sequence (O49686 whole entry K59R/V81T/F108A/S122G): as the sequence (O49686 whole entry K59R/F108A/S122G/F159L) above, with V81T, L159F counted along it
T9 sequence (Q9CAJ0 23-511 partner): as the sequence (Q9CAJ0 23-511 partner) above
T5 sequence (O49686 whole entry K59R/V81I/F108A/S122G): as the sequence (O49686 whole entry K59R/F108A/S122G/F159L) above, with V81I, L159F counted along it
T5 sequence (Q9CAJ0 23-511 partner): as the sequence (Q9CAJ0 23-511 partner) above
T1 sequence (O49686 whole entry K59R/V83L/F108A/S122G): as the sequence (O49686 whole entry K59R/F108A/S122G/F159L) above, with V83L, L159F counted along it
T1 sequence (Q9CAJ0 23-511 partner): as the sequence (Q9CAJ0 23-511 partner) above
T10 sequence (O49686 whole entry K59R/F108A/S122G/F159V): as the sequence (O49686 whole entry K59R/F108A/S122G/F159L) above, with L159V counted along it
T10 sequence (Q9CAJ0 23-511 partner): as the sequence (Q9CAJ0 23-511 partner) above
T7 sequence (O49686 whole entry K59R/V81C/F108A/S122G): as the sequence (O49686 whole entry K59R/F108A/S122G/F159L) above, with V81C, L159F counted along it
T7 sequence (Q9CAJ0 23-511 partner): as the sequence (Q9CAJ0 23-511 partner) above
T6 sequence (O49686 whole entry K59R/F108A/S122G/V164I): as the sequence (O49686 whole entry K59R/F108A/S122G/F159L) above, with L159F, V164I counted along it
T6 sequence (Q9CAJ0 23-511 partner): as the sequence (Q9CAJ0 23-511 partner) above
T3 sequence (O49686 whole entry K59R/F108A/S122G/A160V): as the sequence (O49686 whole entry K59R/F108A/S122G/F159L) above, with L159F, A160V counted along it
T3 sequence (Q9CAJ0 23-511 partner): as the sequence (Q9CAJ0 23-511 partner) above
T2 sequence (O49686 whole entry K59R/F108A/S122G/F159M): as the sequence (O49686 whole entry K59R/F108A/S122G/F159L) above, with L159M counted along it
T2 sequence (Q9CAJ0 23-511 partner): as the sequence (Q9CAJ0 23-511 partner) above

With `C#CCOc1ccc(CCNC(=O)C(OCC#C)c2ccc(Cl)cc2)cc1OC` (centres unmarked) [Mandipropamid, mandipropamid] as the compound, how does the leaf temperature [1] read?
The leaf temperature was “increase in leaf temperature”.

And the Threshold [2]?
The Threshold was 0.05 µM.

And the Threshold [3]?
The Threshold was 0.25 µM.

What about the Threshold [4] of the same compound?
Its Threshold is 0.25 µM.

What about the Threshold [5] of the same compound?
The Threshold was 0.25 µM.

And the Threshold [6]?
The Threshold was 0.25 µM.

What about the Threshold [7] of the same compound?
Its Threshold is 0.25 µM.

And the Threshold [8]?
Its Threshold is 0.25 µM.

And the Threshold [9]?
Its Threshold is 0.05 µM.

What about the Threshold [10] of the same compound?
The Threshold was 0.25 µM.

And the Threshold [11]?
The Threshold was 0.25 µM.
